Data as given in patent publication USRE45907E1, “Functionalized stilbene derivatives as improved vascular targeting agents” (OXiGENE, Inc., priority 2001, dated 2016).
Structures can show the parent of a compound that is named as a salt. Where two headings read alike, the source gives them in different places.

Columns and labels:
[1] = format: cell-based
Method: Exponentially growing were treated with the following compounds for 1 hour and 5 days. Insoluble compounds were formulated in a small amount (0.3%) of DMSO for biological evaluation. Cell viability was determined by the calorimetric MTT assay using 3(4,5-dimethylthiazol-2-yl)-2,5-diphenyl-2H-tetrazolium bromide according to well-established procedures (see Berridge, et al. (1996) for a general protocol of this type of assay).

[2] = test system: MHEC-5T hemangioendothelioma tumor; format: in vivo; settings: 100 mg/kg single i.p. dose, 24 hours post-treatment, SCID mice with MHEC5-T tumor
Method: The vascular effects of the following compounds were assessed in tumor-bearing mice using a fluorescent-bead assay. A MHEC-5T hemangioendothelioma tumor model was established by subcutaneous injection of 0.5×10^6 cultured MHEC5-T cells into the right flank of Fox Chase CB-17 SCID mice and allowed to grow to a size of 300 mm^3 before i.p. injection with a single dose of saline control or compound. At 24 hours post-treatment, mice were i.v. injected with 0.25 ml of diluted FluoSphere beads (1:6 in physiological saline) in the tail vein, and sacrificed after 3 minutes. Tumor cryosections at a thickness of 8 um were directly examined using quantitative fluorescent microscopy. For quantification, image analysis of 3 sections from three tumor treated in each group were examined and vascular shutdown was expressed a vessel area per tissue area (mm^2) in percentage of the control.

tubulin = assay: Inhibition of tubulin polymerization; format: biochemical
human cancer cell lines = assay: MTT cytotoxicity of combretastatins and prodrugs (Table 1); format: cell-based
[3] = treated for 1 hour, read-out: IC50 @ 1 h
[4] = treated for 5 days, read-out: IC50 @ 5 days
[5] = 1 h, read-out: MTT Cytotoxicity (IC50) at 1 hour
[6] = 5 h, read-out: MTT Cytotoxicity (IC50) at 5 hours

Question: For “3′,5′-Tetrasodium Phosphate-3,4,4′,5-tetramethoxy-(Z)-stilbene [ZSB-2B]”, which IC50 [1, 3] is on record?
Answer: The IC50 was 25000 nM.

Question: And the IC50 [1, 4]?
Answer: Its IC50 is 1000 nM.

Question: What about the “% Blood Flow Shutdown (100 mg/kg)” value [2] of the same molecule?
Answer: The value was 65%.

Question: What does the source list for `COc1ccc(/C=C\c2cc(OC)c(OC)c(OC)c2)c(O)c1O` [CA-1, combretastatin A-1]?
Answer: IC50 (tubulin): 2000 to 4000 nM; activity with tubulin (tubulin): active with tubulin; IC50 (human cancer cell lines; [5]): 10000 nM; IC50 (human cancer cell lines; [6]): 50 nM

Question: With `COc1cc(/C=C\c2ccc(OC)c(OP(=O)(O)O)c2OP(=O)(O)O)cc(OC)c1OC` [CA-1P] as the molecule, how does the IC50 (tubulin) read?
Answer: The IC50 was over 40000 nM.

Question: What about the activity with tubulin (tubulin) of the same molecule?
Answer: Its activity with tubulin is “not active with tubulin”.

Question: What about the IC50 (human cancer cell lines; [5]) of the same molecule?
Answer: The IC50 was 3200 nM.

Question: And the IC50 (human cancer cell lines; [6])?
Answer: Its IC50 is 4.6 nM.

Question: With `COc1ccc(/C=C\c2cc(OC)c(OC)c(OC)c2)cc1O` [CA-4, Combretastatin A-4] as the molecule, how does the IC50 (tubulin) read?
Answer: The IC50 was […].

Question: What about the IC50 (human cancer cell lines; [5]) of the same molecule?
Answer: The IC50 was 100 nM.

Question: And the IC50 (human cancer cell lines; [6])?
Answer: The IC50 was 50 nM.

Question: What does the source list for `COc1ccc(/C=C\c2cc(OC)c(OC)c(OC)c2)cc1OP(=O)(O)O` [CA-4P]?
Answer: IC50 (tubulin): > 40000 nM; IC50 (human cancer cell lines; [5]): 800 nM; IC50 (human cancer cell lines; [6]): 2 nM

Question: Which IC50 [1, 3] does the source give for `COc1ccc(/C=C\c2cc(OC)c(OC)c(OC)c2)cc1OP(=O)(O)OC1CCCCC1` [Oxi-com191, CA4P Cyclohexane Ester, Ammonium Salt] here?
Answer: The IC50 was 35000 nM.

Question: What about the IC50 [1, 4] of the same molecule?
Answer: Its IC50 is 130 nM.

Question: With `COc1ccc(/C=C\c2cc(OC)c(OC)c(OC)c2)cc1OP(=O)(O)OC` [Oxi-com209, CA-4P Methyl Ester, Ammonium Salt] as the molecule, how does the IC50 [1, 3] read?
Answer: The IC50 was 38000 nM.

Question: What about the IC50 [1, 4] of the same molecule?
Answer: The IC50 was 70 nM.

Question: With `COc1ccc(/C=C\c2cc(OC)c(OC)c(OC)c2)c(N)c1N` [ZSB-3B, 2′,3′-Damino-3,4,4′,5-tetramethoxy-(Z)-stilbene] as the molecule, how does the IC50 [1, 3] read?
Answer: The IC50 was 2400 nM.

Question: What about the IC50 [1, 4] of the same molecule?
Answer: The IC50 was 4.3 nM.

Question: For `COc1ccc(/C=C\c2cc(OC)c(OC)c(OC)c2)c(Br)c1O` [ZSB-16, 2′-Bromo-3′-Hydroxy-3,4,4′,5-tetramethoxy-(Z)-stilbene], which IC50 [1, 3] is on record?
Answer: Its IC50 is 2000 nM.

Question: What about the IC50 [1, 4] of the same molecule?
Answer: The IC50 was 6.7 nM.

Question: Which results are given for `COc1ccc(/C=C\c2cc(OC)c(OC)c(OC)c2)c(O)c1Br` [ZSB-26A, 2′ Hydroxy-3′-bromo-3,4,4′,5-tetramethoxy-(Z)-stilbene]?
Answer: IC50 [1, 3]: 3070 nM; IC50 [1, 4]: 16 nM

Question: With `COc1cc(/C=C\c2ccc(OC)c(OP(=O)([O-])[O-])c2OC)cc(OC)c1OC.[Na+].[Na+]` [ZSB-27B, 3′-Disodium Phosphate-3,3′,4,4′,5-pentamethoxy-(Z)-stilbene] as the molecule, how does the “% Blood Flow Shutdown (100 mg/kg)” value [2] read?
Answer: The value was 41%.

Question: Which “% Blood Flow Shutdown (100 mg/kg)” value [2] does the source give for `COc1cc(/C=C\c2cc(OC)c(OC)c(OC)c2)c(I)cc1OP(=O)([O-])[O-].[Na+].[Na+]` [ZSB-29B, 4′-Disodium Phosphate-2′-Iodo-3,4,5,5′-tetramethoxy-(Z)-stilbene] here?
Answer: The value was 43%.

Question: With `COc1cc(OP(=O)([O-])[O-])c(/C=C\c2cc(OC)c(OC)c(OC)c2)cc1OP(=O)([O-])[O-].[Na+].[Na+].[Na+].[Na+]` [ZSB-33B, 2′,5′-Tetrasodium Diphosphate-3,4,4′,5-tetramethoxy-(Z)-stilbene] as the molecule, how does the “% Blood Flow Shutdown (100 mg/kg)” value [2] read?
Answer: The value was 51%.

Question: With `COc1ccc(/C=C\c2cc(OC)c(OC)c(OC)c2)c(N)c1` [ZSB-39B, 2′-Amino-3,4,4′,5-tetramethoxy-(Z)-stilbene] as the molecule, how does the “% Blood Flow Shutdown (100 mg/kg)” value [2] read?
Answer: The value was 50%.

Question: What does the source list for `COc1ccc(/C=C\c2cc(OC)c(OC)c(OC)c2)c(F)c1O` [ZSB-41A, 2′-Fluoro-3′-Hydroxy-3,4,4′,5-tetramethoxy-(Z)-stilbene]?
Answer: IC50 [1, 3]: 8000 nM; IC50 [1, 4]: 15 nM

Question: What does the source list for `COc1cc(/C=C\c2cc(O)c(OC)c([N+](=O)[O-])c2)cc(OC)c1OC` [ZSB-43, 3′-Hydroxy, 5′-Nitro-3,4,4′,5-tetramethoxy-(Z)-stilbene]?
Answer: IC50 [1, 3]: 8000 nM; IC50 [1, 4]: 1300 nM

Question: Which results are given for `COc1ccc(/C=C\c2cc(OC)c(OC)c(OC)c2)c(NC(=O)C(N)CO)c1` (centres unmarked) [ZSB-45, 2′serinamide-3,4,4′,5-tetramethoxy-(Z)-stilbene]?
Answer: IC50 [1, 3]: 10000 nM; IC50 [1, 4]: 50 nM; % Blood Flow Shutdown (100 mg/kg) [2]: 43%

Question: Which results are given for `COc1ccc(/C=C\c2cc(OC)c(OC)c(OC)c2)c(O)c1` [ZSB-46A, 2′-Hydroxy-3,4,4′,5-tetramethoxy-(Z)-stilbene]?
Answer: IC50 [1, 3]: 43000 nM; IC50 [1, 4]: 68 nM

Question: For “CA4P n-Octyl Ester, Ammonium Salt [Oxi-com210]”, which “% Blood Flow Shutdown (100 mg/kg)” value [2] is on record?
Answer: Its value is 89%.
